Assay results published in patent publication US20230331720A1, “MEDIUM- OR MACRO-CYCLIC BENZYL-SUBSTITUTED HETEROCYCLE DERIVATIVES AND THEIR USES AS OREXIN-2 RECEPTOR AGONISTS” (Orexia Therapeutics Limited, priority 2020, published 2023).

System: not given
Assay: not given
Settings: amide bond; 13-membered ring; HATU/DIEA; DMF; 9.9 mM; 25.0 °C

Q: Which ring closure, isolated yield does the source give for “N-(5-oxo-4(2,1)-piperidina-1(1,2),2(1,3)-dibenzenacyclononaphane-4^3-yl)-methanesulfonamide_cis racemic” here?
A: 27%

Same assay, conditions: amide bond; 13-membered ring; HATU/DIEA; DMF; 10.0 mM; 25.0 °C

Q: With “N-(5-oxo-9-oxa-4(2,1)-piperidina-1(1,2),2(1,3)-dibenzenacyclononaphane-4^3-yl)methanesulfonamide_cis racemic” as the molecule, how does the ring closure, isolated yield read?
A: 38%

Q: Which ring closure, isolated yield does the source give for “N-(5-oxo-9-oxa-4(2,1)-pyrrolidina-1(1.2),2(1,3)-dibenzenacyclo-nonaphane-4^3-yl)ethanesulfonamide_cis racemic” here?
A: 49%

Same assay, conditions: amide bond; 15-membered ring; HATU/DIEA; DMF; 8.9 mM; 25.0 °C

Q: For “N-(5-oxo-4(2,1)-piperidina-1(1,2),2(1,3)-dibenzenacycloundecaphane-4^3-yl)methanesulfonamide_cis racemic”, which ring closure, isolated yield is on record?
A: 67%

Same assay, conditions: crosslinker bond; 15-membered ring; CDI/DIEA; DMF; 10.0 mM; 70.0 °C

Q: For “N-(5-oxo-6-aza-4(2,1)-piperidina-1(1,2),2(1.3)-dibenzenacyclo-undecaphane-4^3-yl)methanesulfonamide_cis racemic”, which ring closure, isolated yield is on record?
A: 23%

Same assay, conditions: from O=C(O)CCOc1cccc(F)c1-c1cccc(CC2NCCCC2=O)c1; amide bond; 12-membered ring; HATU/DIEA; DMF; 0.49 mM; 25.0 °C; 12.0 h

Q: For O=C1CCCN2C(=O)CCOc3cccc(F)c3-c3cccc(c3)CC12 (centres unmarked), which ring closure, isolated yield is on record?
A: 27.7%

Same assay, conditions: from O=C(O)CCOc1ccccc1-c1cc(CC2NCCCC2=O)ccc1F; amide bond; 12-membered ring; HATU/DIEA; DMF; 0.54 mM; 25.0 °C; 12.0 h

Q: With O=C1CCCN2C(=O)CCOc3ccccc3-c3cc(ccc3F)CC12 (centres unmarked) as the molecule, how does the ring closure, isolated yield read?
A: 28.4%

Molecular target: T1, human orexin type 2 receptor (hOX2R) (Homo sapiens, UniProt O43614)
T1 construct: expressed in transfected cells
T1 sequence (O43614 1-444): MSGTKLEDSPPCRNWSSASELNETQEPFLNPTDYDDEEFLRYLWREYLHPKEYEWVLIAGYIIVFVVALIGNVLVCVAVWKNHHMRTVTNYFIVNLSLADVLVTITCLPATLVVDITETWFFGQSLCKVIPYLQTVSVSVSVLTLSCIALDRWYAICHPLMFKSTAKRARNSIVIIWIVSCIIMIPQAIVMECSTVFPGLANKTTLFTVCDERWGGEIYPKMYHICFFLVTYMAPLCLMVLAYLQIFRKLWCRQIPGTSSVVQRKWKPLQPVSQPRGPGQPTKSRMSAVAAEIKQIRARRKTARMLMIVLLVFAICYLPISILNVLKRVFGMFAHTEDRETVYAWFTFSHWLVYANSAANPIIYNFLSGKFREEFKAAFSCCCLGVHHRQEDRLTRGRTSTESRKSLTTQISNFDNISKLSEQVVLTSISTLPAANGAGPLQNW
Assay: Orexin type 2 receptor agonist activity, intracellular Ca2+ (FLIPR TETRA)
Format: cell-based
Settings: CHO cells expressing hOX2R; Ca2+ fluorescence area; read-out: hOx2 pEC50 (converted)
Experimental: Stable cell line generation. Obtainment of cells stably expressing either human orexin type 2 or human orexin type 1 receptor; to obtain a stable cell line the Orexin receptor cDNA was inserted into pcDNA3.1(+) plasmid vector and clones identified by G418 drug resistance selection. […] A single clone for OX2R-CHO and OX1R-CHO were grown in bulk and frozen to generate a cell bank for routine screening.
Measurement of orexin type 2 receptor agonist activity. Chinese hamster ovary (CHO) cells expressing human orexin type 2 receptor (hOX2R) or human orexin type 1 receptor (hOX1R) were seeded in each well of 384 well black clear bottom plates (BD Flacon) at 10,000 cells per well and cultured for 24 hr in an Ham's F12 (Gibco) medium containing 10% fetal calf serum (Sigma Aldrich) under the conditions of 37° C., 5% CO2. After removal of the medium, 50 μl of assay buffer 1 (0.1% bovine serum albumin (Sigma Aldrich), 20 mM HEPES (Molecular Dimensions), […] probenecid (Sigma Aldrich), 1× Calcium 5 dye (Molecular Devices) in Hank's balanced salt solution (Invitrogen)) was added, and the cells were incubated for 60 min under the conditions of 37° C., 5% CO2. A test compound was dissolved in dimethyl sulfoxide (Sigma Aldrich) to 10 mM, and then diluted with assay buffer 2 (20 mM HEPES, Hank's balanced salt solution, 0.1% bovine serum albumin). For the reaction, a test compound solution (10 μl) was added using Fluorescent Imaging Plate Reader TETRA (FLIPR TETRA: manufactured by Molecular Devices), a fluorescence value (excitation wavelength 488 nm, measurement wavelength 570 nm) of each well was measured every one second for 2 min, and the agonist activity was determined using the area of the fluorescence value as an indicator of intracellular Ca^2+ concentration. The agonist activity of the test compound was calculated assuming that the fluorescence value of the well added with only the dilution buffer was 0% and the fluorescence value of the well added with 10 nM human orexin A (Tocris) buffer was 100%. As used herein, Emax indicates the value at 10 μM concentration when orexin A is converted to a full agonist (maximum value of agonist activity: 100%).

Q: Which EC50 does the source give for CCS(=O)(=O)N[C@H]1CCCN2C(=O)CCOc3ccccc3-c3cccc(c3)C[C@@H]12 [Compound A1-72] here?
A: 1 to 10 nM

Q: Which EC50 does the source give for CS(=O)(=O)N[C@H]1CCCN2C(=O)NCCOc3ccccc3-c3cccc(c3F)C[C@@H]12 [Compound A1-73] here?
A: 1 to 10 nM

Q: Which EC50 does the source give for CCS(=O)(=O)N[C@H]1CCCN2C(=O)CCOc3ccccc3-c3cccc(c3)C[C@@H]12 [Compound A1-74, N-((4^2,4^3S)-5-oxo-8-oxa-4(2,1)-piperidina-1(1,2),2(1.3)-dibenzenacyclo-octaphane-4^3-yl)ethanesulfonamide] here?
A: 10 to 100 nM

Q: With CN(C)S(=O)(=O)N[C@@H]1CCCN2C(=O)CCOc3ccccc3-c3cccc(c3)C[C@H]12 [Compound A1-75] as the molecule, how does the EC50 read?
A: 10 to 100 nM

Q: Which EC50 does the source give for CN(C)S(=O)(=O)N[C@H]1CCCN2C(=O)CCOc3ccccc3-c3cccc(c3)C[C@@H]12 [Compound A1-76, N-((4^2S,4^3S)-5-oxo-8-oxa-4(2,1)-piperidina-1(1,2),2(1,3)-dibenzenacyclooctaphane-4^3-yl)-N,N-dimethylsulfuric diamide] here?
A: 1 to 10 nM

Q: For CN(C)S(=O)(=O)N[C@H]1CCCN2C(=O)OCCOc3ccccc3-c3cccc(c3)C[C@@H]12 [Compound A1-77], which EC50 is on record?
A: 10 to 100 nM

Q: With CS(=O)(=O)N[C@H]1CCCN2C(=O)CCOc3ccccc3-c3cccc(c3)C[C@@H]12 [Compound A1-78, N-((4^2S,4^3S)-5-oxo-8-oxa-4(2,1)-piperidina-1(1,2),2(1,3)-dibenzenacyclo-octaphane-4^3-yl)methanesulfonamide] as the molecule, how does the EC50 read?
A: 1 to 10 nM

Q: For CN(C)S(=O)(=O)N[C@H]1CCCN2C(=O)CCCc3ccccc3-c3cccc(c3)C[C@@H]12 [Compound A1-79], which EC50 is on record?
A: 1 to 10 nM

Q: Which EC50 does the source give for O=C1CCOc2ccccc2-c2cccc(c2)C[C@H]2[C@@H](NS(=O)(=O)CF)CCCN12 [Compound A1-80] here?
A: 1 to 10 nM

Q: With CN1CCOc2ccccc2-c2cccc(c2)C[C@H]2[C@@H](NS(=O)(=O)N(C)C)[C@@H](F)CN2C1=O [Compound A1-81] as the molecule, how does the EC50 read?
A: 1 to 10 nM

Q: Which EC50 does the source give for CS(=O)(=O)N[C@H]1CCCN2C(=O)CCOc3ccccc3-c3cccc(c3F)C[C@@H]12 [Compound A1-82, N-((4^2S,4^3S)-22-fluoro-5-oxo-8-oxa-4(2.1)-piperidina-1(1,2),2(1.3)-dibenzenacyclooctaphane-4^3-yl)methanesulfonamide] here?
A: 1 to 10 nM

Q: With COc1c2cccc1-c1ccccc1OCCC(=O)N1CCC[C@H](NS(C)(=O)=O)[C@@H]1C2 [Compound A1-83] as the molecule, how does the EC50 read?
A: 1 to 10 nM

Q: With O=C1CCOc2ccccc2-c2cccc(c2)C[C@H]2[C@@H](NS(=O)(=O)C3CC3)CCCN12 [Compound A1-84] as the molecule, how does the EC50 read?
A: 0.1 to 1 nM

Q: Which EC50 does the source give for C[C@H]1COc2ccccc2-c2cccc(c2)C[C@H]2[C@@H](NS(C)(=O)=O)CCCN2C1=O [Compound A1-85] here?
A: 10 to 100 nM

Q: For COc1c2cccc1-c1ccccc1OCCN(C)C(=O)N1C[C@H](F)[C@H](NS(=O)(=O)CF)[C@@H]1C2 [Compound A1-86], which EC50 is on record?
A: 1 to 10 nM

Q: For O=C1CCOc2ccccc2-c2cc(ccc2F)C[C@H]2[C@@H](NS(=O)(=O)CF)CCCN12 [Compound A1-87, 1-fluoro-N-((4^2S,4^3S)-26-fluoro-5-oxo-8-oxa-4(2,1)-piperidina-1(1,2),2(1,3)-dibenzenacyclooctaphane-4^3-yl)methanesulfonamide], which EC50 is on record?
A: 1 to 10 nM

Q: For COc1c2cccc1-c1ccccc1OCCNC(=O)N1C[C@H](F)[C@H](NS(=O)(=O)CF)[C@@H]1C2 [Compound A1-88], which EC50 is on record?
A: 10 to 100 nM

Q: With O=C1CCOc2cccc(F)c2-c2cccc(c2)C[C@H]2[C@@H](NS(=O)(=O)CF)CCCN12 [Compound A1-89, 1-fluoro-N-((4^2S,4^3S)-16-fluoro-5-oxo-8-oxa-4(2,1)-piperidina-1(1,2),2(1,3)-dibenzenacyclooctaphane-4^3-yl)methanesulfonamide] as the molecule, how does the EC50 read?
A: 10 to 100 nM

Q: With O=C1CCOc2c(F)cccc2-c2cccc(c2)C[C@H]2[C@@H](NS(=O)(=O)CF)CCCN12 [Compound A1-90, 1-fluoro-N-((4^2S,4^3S)-13-fluoro-5-oxo-8-oxa-4(2,1)-piperidina-1(1,2),2(1,3)-dibenzenacyclooctaphane-4^3-yl)methanesulfonamide] as the molecule, how does the EC50 read?
A: 0.1 to 1 nM

Q: For O=C1CCOc2ccc(F)cc2-c2cccc(c2)C[C@H]2[C@@H](NS(=O)(=O)CF)CCCN12 [Compound A1-91, 1-fluoro-N-((4^2S,4^3S)-15-fluoro-5-oxo-8-oxa-4(2,1)-piperidina-1(1,2),2(1,3)-dibenzenacyclooctaphane-4^3-yl)methanesulfonamide], which EC50 is on record?
A: 1 to 10 nM

Q: With CN1CCOc2ccccc2-c2cccc(c2F)C[C@H]2[C@@H](NS(=O)(=O)CF)[C@@H](F)CN2C1=O [Compound A1-92, N-((4^2S,4^3R,4^4S)-2^2,4^4-difluoro-6-methyl-5-oxo-9-oxa-6-aza-4(2,1)-pyrrolidina-1(1,2),2(1,3)-dibenzenacyclononaphane-4^3-yl)-1-fluoromethanesulfonamide] as the molecule, how does the EC50 read?
A: 1 to 10 nM

Q: With CN1CCOc2ccccc2-c2cccc(c2)C[C@H]2[C@@H](NS(=O)(=O)C(F)F)C3(CC3)CN2C1=O [Compound A1-95, 1,1-difluoro-N-((2′S,3′S)-6′-methyl-5′-oxospiro[cyclopropane-1,4′-9-oxa-6-aza-4(2,1)-pyrrolidina-1(1,2),2(1,3)-dibenzenacyclononaphan]-3′-yl)methanesulfonamide] as the molecule, how does the EC50 read?
A: 1 to 10 nM

Q: With O=C1CCOc2ccccc2-c2cccc(c2F)C[C@H]2[C@@H](NS(=O)(=O)C(F)F)[C@@H](F)CN12 [Compound A1-96] as the molecule, how does the EC50 read?
A: 10 to 100 nM

Q: With O=C1CCOc2ccccc2-c2cc(F)cc(c2F)C[C@H]2[C@@H](NS(=O)(=O)CF)CCCN12 [Compound A1-97] as the molecule, how does the EC50 read?
A: 10 to 100 nM

Q: For O=C1CCOc2ccccc2-c2cccc(c2F)C[C@H]2[C@@H](NS(=O)(=O)C(F)F)CCCN12 [Compound A1-98], which EC50 is on record?
A: 0.1 to 1 nM

Q: With O=C1CCOc2ccccc2-c2cccc(c2)C[C@H]2[C@@H](NS(=O)(=O)CF)C3(CC3)CN12 [Compound A1-99] as the molecule, how does the EC50 read?
A: 10 to 100 nM

Q: For CCS(=O)(=O)N[C@H]1CCCN2C(=O)CCOc3ccccc3-c3cccc(c3F)C[C@@H]12 [Compound A1-100], which EC50 is on record?
A: 1 to 10 nM

Q: Which EC50 does the source give for O=C1CCOc2ccccc2-c2cccc(c2F)C[C@H]2[C@@H](NS(=O)(=O)CF)CCCN12 [Compound A1-102] here?
A: 10 to 100 nM
